Measurements: US10745382B2 (BRISTOL-MYERS SQUIBB COMPANY, priority 2015, dated 2020)

Target: T1, PD-1/PD-L1 (Homo sapiens, UniProt Q9NZQ7)
T1 construct: made in house; host or cells: HEK293T
Assay: PD-1/PD-L1 Homogenous Time-Resolved Fluorescence (HTRF) binding assay
Details: PD-L1-His 10 nM, PD-1-Ig 20 nM; value given as range class; read-out: Range or IC50
Procedure, shortened: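 Binding measured in dPBS with 0.1% BSA and 0.05% Tween-20, detected by HTRF with europium cryptate anti-Ig (1 nM final) and APC anti-His (20 nM final) added over the binding reaction. Counter-assays used human PD-1-Ig/PD-L2-His (20 and 5 nM) and CD80-His/PD-L1-Ig (100 and 10 nM).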

T1 sequence (Q9NZQ7 with tags, fused parts or gaps): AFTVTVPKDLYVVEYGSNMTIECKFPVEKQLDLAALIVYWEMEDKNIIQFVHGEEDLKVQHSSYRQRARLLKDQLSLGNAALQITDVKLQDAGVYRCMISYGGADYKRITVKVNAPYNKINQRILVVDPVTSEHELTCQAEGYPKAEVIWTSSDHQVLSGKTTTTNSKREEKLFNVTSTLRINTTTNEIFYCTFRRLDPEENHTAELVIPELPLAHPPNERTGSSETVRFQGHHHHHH

Molecule	IC50
COc1cc(CCc2cccc(-c3cccc(OCCCN4CC[C@@H](O)C4)c3C)c2C)c(Cl)cc1CN1CCCC[C@H]1C(=O)O [Example 4518, (S)-1-(5-chloro-4-(2-(3′-(3-((R)-3-hydroxypyrrolidin-1-yl)propoxy)-2,2′-dimethyl-[1,1′-biphenyl]-3-yl)ethyl)-2-methoxybenzyl)piperidine-2-carboxylic Acid]	0.21 to 10 nM
COc1cc(NC(=O)c2cccc(-c3cccc(OCCCN4CC[C@@H](O)C4)c3C)c2C)c(Cl)cc1C(=O)N1CCCC[C@H]1C(=O)O [Example 4519, (S)-1-(5-chloro-4-(3′-(3-((R)-3-hydroxypyrrolidin-1-yl)propoxy)-2,2′-dimethyl-[1,1′-biphenyl]-3-ylcarboxamido)-2-methoxybenzoyl)piperidine-2-carboxylic Acid]	100 to 2000 nM
Cc1c(COc2cc(OCc3cc(F)cc(F)c3)c(CNC(C)(CO)CO)cc2Cl)cccc1-c1cccc(OCCCN2CC[C@@H](O)C2)c1C [Example 4520, (R)-2-((5-chloro-2-((3,5-difluorobenzyl)oxy)-4-((3′-(3-(3-hydroxypyrrolidin-1-yl)propoxy)-2,2′-dimethyl-[1,1′-biphenyl]-3-yl)methoxy)benzyl)amino)-2-methylpropane-1,3-diol]	0.21 to 10 nM
Cc1c(COc2cc(OCc3cc(F)cc(F)c3)c(CN3CCCC[C@H]3C(=O)O)cc2Cl)cccc1-c1cccc(OCCCN2CC[C@@H](O)C2)c1C [Example 4521, (S)-1-(5-chloro-2-((3,5-difluorobenzyl)oxy)-4-((3′-(3-((R)-3-hydroxypyrrolidin-1-yl)propoxy)-2,2′-dimethyl-[1,1′-biphenyl]-3-yl)methoxy)benzyl)piperidine-2-carboxylic Acid]	0.21 to 10 nM
Cc1c(COc2cc(OCc3cc(F)cc(F)c3)c(CO)cc2Cl)cccc1-c1cccc(OCCCN2CC[C@@H](O)C2)c1C [Example 4522, (R)-1-(3-((3′-((2-chloro-5-((3,5-difluorobenzyl)oxy)-4-(hydroxymethyl)phenoxy)methyl)-2,2′-dimethyl-[1,1′-biphenyl]-3-yl)oxy)propyl)pyrrolidin-3-ol]	10 to 100 nM
Cc1cc(OCc2cccc(-c3cccc(OCCCN4CC[C@@H](O)C4)c3C)c2C)c(Cl)cc1CN1CCCC[C@H]1C(=O)O [Example 4523, (S)-1-(5-chloro-4-((3′-(3-((R)-3-hydroxypyrrolidin-1-yl)propoxy)-2,2′-dimethyl-[1,1′-biphenyl]-3-yl)methoxy)-2-methylbenzyl)piperidine-2-carboxylic Acid]	0.21 to 10 nM
Cc1c(COc2ccc(CN3CCCC[C@H]3C(=O)O)c(C)c2Cl)cccc1-c1cccc(OCCCN2CC[C@@H](O)C2)c1C [Example 4524, (S)-1-(3-chloro-4-((3′-(3-((R)-3-hydroxypyrrolidin-1-yl)propoxy)-2,2′-dimethyl-[1,1′-biphenyl]-3-yl)methoxy)-2-methylbenzyl)piperidine-2-carboxylic Acid]	10 to 100 nM
tert-butyl (S)-3-(((3′-((2-chloro-5-((5-cyanopyridin-3-yl)methoxy)-4-(((1,3-dihydroxypropan-2-yl)amino)methyl)phenoxy)methyl)-2,2′-dimethyl-[1,1′-biphenyl]-3-yl)oxy)methyl)pyrrolidine-1-carboxylate [Example 2322]	10 to 100 nM
